The results in this text go back to PubChem BioAssay (NCI).

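Step 1: Grow cells in 96-well plates. Step 2: Expose to compound for 48 hours at 5 concentrations. Step 3: Interpolate endpoints linearly; if unreached, use highest concentration. GI50 marks 50% less growth. At the TGI there is no net growth.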

Holding throughout (assay): growth of human tumour cells (NCI), 48 h
For experiment [1], the system named is A498 renal.
Experiment [2] concerns ACHN renal.
For experiment [3], the system named is BT-549 breast.
Experiment [4] has as its system EKVX NSCLC.
Experiment [5] relates to HT29 colon.
The test system of experiment [6] is M14 melanoma.
The subject of experiment [7] is MDA-MB-231 breast.
Experiment [8] deals with SF-268 CNS.
Experiment [9] concerns SF-295 CNS.
For experiment [10], the system named is SNB-75 CNS.
For experiment [11], the system named is T-47D breast.
For experiment [12], the system named is MDA-N.

Turning to `Cc1oc2nc(N(C)C)n3cnnc3c2c1C`, the TGI in experiment [1], in experiment [2], in experiment [3], in experiment [4], in experiment [5] and in [6] was greater than 100 µM each time. In addition, the TGI in experiment [7], in experiment [8], in experiment [9], in [10] and in experiment [11] was greater than 100 µM in each case.
For the compound `N#Cc1c(N2CCCC2)nsc1Nc1ccccc1`, the TGI in [1], in experiment [2], in experiment [4], in experiment [5], in experiment [6] and in experiment [7] was greater than 100 µM in each case. The TGI in [12], in experiment [8], in experiment [9], in [10] and in experiment [11] was greater than 100 µM throughout.
Regarding `Cc1cc(OCC(O)CO)ccc1Cl` (stereo not drawn), the TGI in experiment [1], in experiment [2], in experiment [4], in experiment [5], in experiment [6] and in experiment [8] was greater than 100 µM throughout. The TGI in [9] and in experiment [10] was greater than 100 µM each time.
Regarding `O=C(Cn1c(=O)oc2ccc(C(=O)c3cccc(Cl)c3)cc21)c1ccccc1`, the TGI in [1] is 95.8 µM; in [2], greater than 100 µM; in experiment [3], greater than 100 µM; in [4], greater than 100 µM; in experiment [5], greater than 100 µM; in experiment [6], greater than 100 µM. Also, the TGI in experiment [7], in [8], in experiment [9], in experiment [10] and in experiment [11] was greater than 100 µM each time.
Regarding `CSc1nc(-c2ccccc2)nc(=[N+]2CCOCC2)s1`, the TGI in experiment [1], in experiment [2], in [4], in experiment [5], in experiment [6] and in [8] was greater than 100 µM in each case. In addition, in [10], the TGI is greater than 100 µM.
Regarding `Cc1ccc2c(=O)cc(-c3cccc(F)c3)[nH]c2n1`, the TGI in experiment [2] was greater than 100 µM; in experiment [4], greater than 100 µM; in [5], 1.11 µM; in experiment [6], greater than 100 µM; in experiment [7], 1.11 µM; in experiment [12] it was 0.0362 µM. The compound also had a TGI in experiment [8] greater than 100 µM.
Regarding `CC(C)(C)CC(C)(C)NCC(O)COc1ccc(C(C)(C)c2ccc(OCC(O)CNC(C)(C)CC(C)(C)C)cc2)cc1` (stereo not drawn), the TGI is 3.03 µM in experiment [1]; 3.17 µM in experiment [2]; 3.08 µM in [4]; 1.42 µM in experiment [5]; 1.49 µM in experiment [6]; 3.06 µM in [8]. The TGI in [9] came to 3.21 µM; in experiment [10] it was 2.79 µM; in [11], 3.48 µM. Besides, the GI50 in [11] is 1.66 µM.
On to `Nc1ccc(C(=O)O)cc1`, for which the TGI in experiment [2], in [4], in experiment [5], in [6], in experiment [7] and in [12] was greater than 100 µM throughout. The TGI in experiment [8], in experiment [9], in experiment [10] and in [11] was greater than 100 µM each time.
Consider `Nc1ncc2c(n1)-c1ccccc1OC2`, for which the TGI in experiment [1] is greater than 100 µM; in experiment [4], greater than 100 µM; in experiment [5], greater than 100 µM; in experiment [8], greater than 100 µM; in experiment [9] it was greater than 100 µM; in [10], 94.4 µM.
On to `CC(C)=C=CP(=O)(O)c1ccccc1`, for which the TGI in experiment [1], in experiment [2], in experiment [4], in experiment [5], in [6] and in experiment [12] was greater than 100 µM in each case. The TGI in experiment [8], in experiment [9], in experiment [10] and in experiment [11] was greater than 100 µM in each case.
Consider `COc1ccc(C2=NN(c3nsc4ccccc34)C(=O)CC2)cc1`, for which the TGI in experiment [2], in [4], in [5], in [6], in [8] and in experiment [10] was greater than 100 µM throughout.
Regarding `CCOC(=O)C1=C(C)N(Cc2ccccc2)C2(O)C(OC)CC(=O)C3C(=O)N(c4ccccc4)C(=O)C132` (stereo not drawn), the TGI in experiment [1] was 50.6 µM; in [2], 48.4 µM; in [3] it was 24.3 µM; in [4], 60 µM; in [5] it was 23.9 µM; in [6] it was greater than 100 µM. For the same compound, the TGI is 77.2 µM in experiment [7], greater than 100 µM in experiment [8], 47.5 µM in experiment [9] and 30.5 µM in experiment [11].
For `N=C(N)c1ccc(-c2ccc(-c3ccc(Cl)cc3Cl)s2)nc1`, the GI50 in experiment [2] is 1.77 µM; in experiment [3] it was 6.53 µM; in experiment [4] it was 2.47 µM; in experiment [6], 1.85 µM; in experiment [7] it was 1.68 µM; in experiment [9], 1.74 µM. Moreover, the results for the GI50 in experiment [10] and in experiment [11] were 1.43 µM and 2.21 µM, respectively. Moreover, the TGI in experiment [2] came out at 3.16 µM; in [3], 28.6 µM; in experiment [4] it was 6.56 µM; in [6], 3.63 µM; in experiment [7], 3.26 µM; in [9], 3.24 µM. The TGI in experiment [10] amounted to 2.83 µM; in [11], 4.96 µM.
For `CCCCCCCCCCCCCCCCCCNc1nc(=O)n(C2CC(OP(=O)(O)OCC3OC(n4cc(F)c(=O)[nH]c4=O)CC3O)C(CO)O2)cc1F` (stereo not drawn), the TGI in experiment [1] is greater than 100 µM; in experiment [2], greater than 100 µM; in [4], greater than 100 µM; in experiment [5], 48.4 µM; in experiment [6], 43.3 µM; in experiment [7], greater than 100 µM. Further, the TGI is 37.1 µM in [8], 38.5 µM in experiment [9], greater than 100 µM in experiment [10] and greater than 100 µM in experiment [11].
